# Measured values reported in a melting point compilation (Tetko et al.; mined from patent text by program, amines drawn as free bases though some values may be those of a salt).
row,Compound,melting point [°C]
1,CC(C)(C)Nc1cc(N2CCNCC2)nc(N2CCCC2)n1,140 to 145
2,O=c1oc2c(-c3ccccc3)cccc2c(O)c1-c1ccccc1,211
3,Cn1nc2c(oc3cc(Cl)ccc32)c1N,210 to 211
4,COc1cc2c(cn1)OCC21C(=O)N(C(c2ccccc2)c2ccccc2)c2ccccc21 (stereo not drawn),177 to 178
5,ClCc1coc(C2=Cc3ccccc3CC2)n1,73 to 74
6,O=c1[nH]ccc2c1ccc1cc[nH]c12,244 to 245
7,O=CCCCN1C(=O)c2ccccc2C1=O,70
8,OCc1cnoc1-c1ccc(F)c(Cl)c1,106 to 107
9,O=C(C(Cl)c1ccccc1)N1CCCC1 (stereo not drawn),88.5
10,NC(=O)c1ccnc(CCCCCCOCCCCCCBr)c1,73 to 75
11,CN1C(=O)C(Cc2ccccc2)Oc2ccc([N+](=O)[O-])cc21 (stereo not drawn),166 to 169
12,CN(CCSCc1n[nH]c(CSCCN(C)C(N)=S)n1)C(N)=S,133 to 135
13,CC(NC(=S)Nc1ccc(N2CCCCC2)nc1)C(C)(C)C (stereo not drawn),151 to 153
14,COC(=O)NC(=O)C(Cc1ccc(OCCc2nc(-c3ccccc3)oc2C)cc1)C(=O)OC (stereo not drawn),120
15,Cc1coc(NC(=O)C2c3ccccc3Oc3ccccc32)n1,219 to 222
16,O=C(O)c1ccc(CCCBr)cc1,120
17,COc1ccc(C#N)cc1C=O,115 to 118
18,COc1ccc(-c2ccc(S(=O)(=O)CC(C)N(O)C=O)cc2)cc1 (stereo not drawn),197 to 198
19,Cc1ccc(-c2ccc3c(c2)C=C(C(=O)Nc2ccc(CN4CCCCC4)cc2)CCS3)cc1,203 to 204
20,CN1CC(Cn2cccn2)CC2c3cccc4[nH]cc(c34)CC21 (stereo not drawn),192 to 194
21,CC(=O)OC1(c2ccccc2)C=CC(=O)C=C1,100 to 101
22,Oc1ccc2c3c1OC1C(O)CCC4(F)C(C2)N(CC2CCC2)CCC314 (stereo not drawn),236 to 239
23,O=c1c2cnccc2n(-c2cccc(Cl)c2)c2ncccc12,222 to 224
24,O=C(O)C(O)=CC(=O)c1c(Cc2ccccc2)[nH]c2ccccc12,165 to 167

row,Compound,melting point [°C]
1,O=C(O)c1c(F)c(Cl)c(O)c(Cl)c1F,102 to 105
2,CC(=O)Nc1ccc(C(NC(c2ccccc2)c2ccccc2)P(O)O)cc1 (stereo not drawn),196 to 200
3,O=C(Nc1ccccc1)c1cccc(C2=NOCCS2)c1,149 to 150
4,CC1(C)C(=O)N(c2ccccc2)C(=S)N1c1ccc(OCc2ccccc2)cc1,208 to 210
5,O=[N+]([O-])c1ccccc1NCc1ccccc1,65 to 67
6,CCCCOc1ccc(S(=O)(=O)C2(C(=O)OCC)CCN(Cc3ccc(F)cc3)CC2)cc1,114
7,O=C1CCCCC1C(C[N+](=O)[O-])c1ccc(C(F)(F)F)cc1 (racemic),107 to 108
8,O=C(O)CCCCCCCCC1CO1 (stereo not drawn),48
9,O=C1COCC(=O)N1CCCCCCN1CCCCC1,121 to 122
10,CC(C)(C)c1ccc(S(=O)(=O)CS(=O)(=O)c2ccc(C(C)(C)C)cc2)cc1,150 to 152
11,CC(=O)NCCCc1ccc(Cl)c2c1CCO2,76 to 78
12,CC1(C)C(=O)N(c2ccnc(NC(=O)NCc3ccccn3)c2)c2cccnc21,160 to 163
13,CCCCCCCCCCCCCCCCCCNCP(=O)(O)O,108 to 112
14,O=Cc1cccc(/C=C/c2nc(C3CCC3)cs2)c1,78 to 80
15,CN1CCN(Cc2nc3cccnc3n2CCO)CC1,89.5
16,Cc1cc(C2(C(F)(F)F)CC(c3ccc(S(C)=O)cc3)=NO2)ccc1NC(=O)c1cccc(I)c1C(=O)NC(C)C (stereo not drawn),134 to 152
17,O=C(C=Cc1cccc(S(=O)(=O)NCc2ccco2)c1)NO,165
18,CC(C)N=CCCC1(C(N)=O)c2ccccc2-c2ccccc21,149 to 155
19,Brc1ccc2c3c(cccc13)C(NCCCCCn1ccnc1)=N2,138 to 140
20,O=C(O)CN1C(=O)C(=Cc2ccc(OCc3ccc(OC(F)(F)F)cc3)c(OCc3ccccc3)c2)SC1=S,195 to 199
21,COc1ccc(C=CC(=O)C=Cc2ccc(OC)c(OC)c2)cc1OC,68 to 70
22,COc1ccc(C(=O)Cc2c(Cl)cncc2Cl)c2c(CC(=O)Nc3cccnc3)coc12,252 to 255
23,CC(C)COC[C@H](CC(C)C)NC(=O)[C@H]1O[C@@H]1C(=O)O,63
24,c1ccc(Cc2ccccc2Cc2ccccc2)cc1,61 to 67

row,Compound,melting point [°C]
1,CN(C=O)c1ccc(C2OC(C)(C)N=C2c2ccccc2)cc1 (stereo not drawn),104 to 105
2,CC(SC1COC(c2ccc(C(=O)Nc3ccc(SC(F)(F)F)cc3)cc2)OC1)C(O)(Cn1cncn1)c1ccc(F)cc1F (stereo not drawn),95
3,O=S(=O)(CF)c1ccc(C2=C(c3ccc(F)cc3)CCC2)cc1,123 to 124
4,CN(C)c1ccc2c(c1)Sc1cc(OC(=O)c3ccccc3)ccc1N2C(=O)c1ccccc1,194 to 200
5,CC(C)(C)CC(C)(C)c1ccc2c(c1)C(=O)NS2(=O)=O,213 to 215
6,CN(C)CCCOc1ccc(-c2nnc(CSCCOc3ccccc3)o2)cn1,69 to 70
7,Cc1ccc(S(=O)(=O)NC(C)(C)C)o1,113 to 114
8,CCOc1cc2c(cc1OCC)C(c1cccc(N)c1)=NN=C(C)C2,133 to 134
9,Cc1c(SCCN2CCNCC2)ccnc1CSc1nc2ccccc2[nH]1,166 to 168
10,COC(=O)c1ccc(/C=C/C(=O)O)c(Cl)c1,221
11,O=C(O)CCC(=O)c1ccc(-c2ccc(Cl)s2)cc1,212 to 213
12,CCOC(=O)C(C)(C(=O)Nc1cc(Cl)cc(Cl)c1)S(C)=O (stereo not drawn),124 to 127
13,O=C(O)C1Oc2ccccc2Cc2ccccc2O1,153 to 157
14,CON1CCC(C#N)(NO)CC1,130 to 131
15,CC(C)(C)OC(=O)Nc1ccc(C#Cc2ccc(OC(F)(F)F)cc2)cc1N,167 to 169
16,CN1Cc2c(-c3nc(C4CC4)no3)ncn2-c2ccccc2C1=O,202 to 203
17,CSc1ncc(OCc2cccnc2)c(=O)[nH]1,186 to 187
18,O=C(NC(=S)Nc1ccc2nsnc2c1Cl)c1ccccc1,220 to 222
19,Cc1ccc(-n2ncc(-c3ccc(S(C)(=O)=O)cc3)cc2=O)cc1,190 to 192
20,NC(=O)N(O)Cc1ccc(OCc2csc(-c3ccccc3)n2)cc1,161 to 164
21,Cc1cccc(-c2c(CBr)n(C)c(=O)n(C)c2=O)c1,136 to 137
22,Cn1nnnc1-c1ccccc1S(N)(=O)=O,176 to 179
23,Nc1ccn([C@@H]2O[C@H](CO)[C@@H](O)/C2=C\F)c(=O)n1,166

# The remaining lines, values ahead:
row,melting point [°C],Compound
1,216 to 219,Cc1cc(C(=O)O)nc(-c2ccc([N+](=O)[O-])cc2)c1
2,198 to 199,COP(=O)(Cc1ccc(NC(=O)[C@H]2Cc3cc4c(cc3C(=O)[C@H](C)S2)OCO4)cc1)OC
3,90 to 100,CC1CCN(C(=O)c2ccc([C@H]3CC[C@H](NC[C@H](O)COc4ccc(O)c(NS(C)(=O)=O)c4)CC3)cc2)CC1
4,> 300,Cc1ccc2c(S(C)(=O)=O)cn(CC3=NCCN3)c2c1
5,90 to 92,COc1cccc2c(Cl)c(C(=O)C(C)C)cnc12
6,113 to 115,COC(=O)c1cc(S(C)(=O)=O)ccc1OC
7,> 295,CCN(CC)C(=O)C(=O)c1c[nH]c2c1ccc1c3ccccc3[nH]c12
8,196,COc1ccc(C(=O)Nc2ccc3ccc(Cl)nc3n2)cc1OC
9,171 to 172,CC(=S)NC[C@H]1CN(c2ccc(N3CCC(n4ccnn4)CC3)c(F)c2)C(=O)O1
10,200,CC(=O)Nc1nc2c(Oc3cc(N4CCN(C(C)c5ccc(F)cc5)CC4)ncn3)cccc2o1 (stereo not drawn)
11,150 to 151,Cc1cc2c(s1)SCCc1cc(=O)n(-c3ccc(Cl)cc3)nc1-2
12,162 to 164,CCCCNC(=O)N(Cc1ccccn1)C1CCN(c2ncnc3cc(OC)c(OC)cc23)CC1
13,180 to 182,OC1CCN(c2nc(-c3ccccc3)nc3ccccc23)C1 (stereo not drawn)
14,253 to 254,COc1cc2nc(N3CCN(c4ccnc(Oc5ccccc5)n4)CC3)nc(N)c2cc1OC
15,126 to 134,CC(C)N1C(=O)CC(C(=O)O)C1c1ccccc1 (stereo not drawn)
16,182 to 184,CCc1oc2ccccc2c1C(=O)c1ccc(OC(C)C(=O)O)cc1 (stereo not drawn)

row,melting point [°C],Compound
1,110 to 115,CCCCNC(=O)NS(=O)(=O)c1ccccc1-c1nn(C)c(=O)o1
2,54.5 to 57.5,CCCCCCCCNC(=O)Nc1nc2nc(NCCCN3CCN(C)CC3)ncc2cc1-c1c(Cl)cccc1Cl
3,173 to 174,COc1cc2c3c(n(C)c(=O)c2cc1OC)-c1cc2c(cc1C3=CCCCI)OCO2
4,183 to 185,O=C1C2CC(O)CCN2C(=O)N1c1ncc(Cl)cc1F (stereo not drawn)
5,88 to 91,COc1ccc(C2CN(Cc3ccccc3)Cc3c2ccc(OC)c3Cl)cc1OC (stereo not drawn)
6,229 to 231,COc1ccccc1[C@H](c1cccc2ccccc12)[C@@](C)(C#N)C(=O)N1CC=C(c2c[nH]c3ccccc23)CC1
7,196,Cc1cc(S(=O)(=O)N2c3ccccc3-c3ccc(F)cc3C2C)ccc1O (stereo not drawn)
8,236,Cc1ccn2c(=O)c(CCN3CCC(c4c[nH]c5ccccc45)CC3)c(C)nc2c1
9,239 to 241,COc1ccc(NCCn2nc(O)c3[nH]c4cc(Cl)ccc4c(=O)c3c2=O)cc1
10,143 to 144,CCO[C@@H]1c2ccn3c(C)c(C)nc3c2N[C@H](c2ccccc2)[C@H]1O
11,226 to 230,CNCC1CCN(c2c(F)cc3c(=O)c(C(=O)O)cn(C4CC4)c3c2OC)C1 (stereo not drawn)
12,88 to 89,COC(=O)CCCc1cc2nc(Cl)ccc2n1S(=O)(=O)c1ccc(C)cc1Cl
13,95 to 97,C=CCn1c(C)nc2c1CC(C(=O)OCC)CC2=O (stereo not drawn)
14,180,COc1ccc(N2CCOCC2)c2sc(C(=O)NCC(=O)c3sc4ccccc4c3C)nc12
15,62 to 75,COC(=O)c1c(O)cc(C(F)(F)F)nc1C(F)(F)F
16,250 to 256,CCNC(=O)c1ccc(N2CCN(Cc3ccc4c(c3)NC(=O)C(C)O4)CC2)cc1 (stereo not drawn)
